Read-outs that look alike come from different tables or passages of the source. Numbered stars: 1 amine (or outer) side, 2 acyl side, 3 side chain; on linkers, the order of the positions; unused ones are H or OH. Bridge positions count the residues as written; N and C are the ends. I, II: the chains in the order shown. * marks the point of attachment. X1 = CC(C)CCC[C@@H](C)[C@H]1CC[C@H]2[C@@H]3CC=C4C[C@@H](OCCN(CCNC(=O)CCOCCOCCOCCOCCNC(=O)CCCN5C(=O)CC([*:1])C5=O)CCNC(=O)CCOCCOCCOCCOCCNC(=O)CCCN5C(=O)CC([*:2])C5=O)CC[C@]4(C)[C@H]3CC[C@]12C; Cam = NC(=O)C*
Tests used:
HIV-1 BaL = details: TZM-bl cells; for IC50: read-out: IC50, inhibition of HIV-1 infectivity, strain BaL, R5 strain BaL, moi 4, luciferase read-out after 48 h
[1] = target: Nipah virus envelope glycoproteins mediated fusion (Nipah virus, UniProt Q9IH63); test: cell-based; type: cell-based
Sequence of Nipah virus envelope glycoproteins mediated fusion (Q9IH63 110-546 limits assumed): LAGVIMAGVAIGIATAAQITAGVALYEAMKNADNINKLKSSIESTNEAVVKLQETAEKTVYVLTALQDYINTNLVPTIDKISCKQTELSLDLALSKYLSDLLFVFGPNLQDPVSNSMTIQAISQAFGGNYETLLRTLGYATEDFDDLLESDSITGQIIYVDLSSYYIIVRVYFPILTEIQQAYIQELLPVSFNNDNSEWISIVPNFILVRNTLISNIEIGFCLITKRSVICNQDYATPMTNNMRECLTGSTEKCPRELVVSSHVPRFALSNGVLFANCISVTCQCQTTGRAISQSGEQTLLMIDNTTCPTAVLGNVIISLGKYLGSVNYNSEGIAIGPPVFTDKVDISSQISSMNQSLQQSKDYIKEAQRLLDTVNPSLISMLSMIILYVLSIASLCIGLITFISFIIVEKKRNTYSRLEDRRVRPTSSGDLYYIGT
Sequence of Nipah virus envelope glycoproteins mediated fusion (Q9IH63 27-109 partner limits assumed): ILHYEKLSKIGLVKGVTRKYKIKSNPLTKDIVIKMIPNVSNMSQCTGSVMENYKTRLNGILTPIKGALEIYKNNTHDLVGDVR

[2] = target: type 3 HPIV envelope glycoproteins mediated fusion (Human parainfluenza 3 virus, UniProt P06828); test: cell-based; type: cell-based, human parainfluenza virus type 3 (HPIV3)
Sequence of type 3 HPIV envelope glycoproteins mediated fusion (P06828 19-109): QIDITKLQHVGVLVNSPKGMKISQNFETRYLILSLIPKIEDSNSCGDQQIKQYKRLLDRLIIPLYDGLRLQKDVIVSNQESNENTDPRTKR
Sequence of type 3 HPIV envelope glycoproteins mediated fusion (P06828 110-539): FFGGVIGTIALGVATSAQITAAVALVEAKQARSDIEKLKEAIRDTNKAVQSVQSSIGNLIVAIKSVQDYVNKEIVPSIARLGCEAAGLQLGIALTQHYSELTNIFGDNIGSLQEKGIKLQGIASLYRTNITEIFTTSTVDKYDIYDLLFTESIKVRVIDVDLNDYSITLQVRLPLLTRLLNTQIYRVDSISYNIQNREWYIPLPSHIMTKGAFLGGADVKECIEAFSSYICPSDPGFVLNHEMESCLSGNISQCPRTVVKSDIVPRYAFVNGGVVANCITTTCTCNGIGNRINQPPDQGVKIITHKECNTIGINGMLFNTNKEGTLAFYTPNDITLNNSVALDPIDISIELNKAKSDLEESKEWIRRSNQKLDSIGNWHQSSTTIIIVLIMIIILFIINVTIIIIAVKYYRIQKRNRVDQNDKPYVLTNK

[3] = tested on: Nipah virus (isolate UMMC1)
Nipah virus = tested on: Nipah virus; parameters: species or system golden hamster (Mesocricetus auratus); details: hamster, in vivo

Compound: CC[C@H](C)[C@H](NC(=O)[C@H](CC(C)C)NC(=O)[C@H](CO)NC(=O)[C@H](Cc1c[nH]cn1)NC(=O)[C@@H](NC(=O)[C@H](CC(C)C)NC(=O)[C@H](CO)NC(=O)[C@@H](NC(=O)[C@H](Cc1ccc(O)cc1)NC(=O)[C@H](CC(N)=O)NC(=O)[C@H](CC(N)=O)NC(=O)[C@@H](NC(=O)[C@H](CCC(=O)O)NC(=O)[C@H](CCCNC(=N)N)NC(=O)[C@H](CC(=O)O)NC(=O)[C@H](Cc1c[nH]c2ccccc12)NC(=O)[C@H](CCC(=O)O)NC(=O)[C@H](CCSC)NC(=O)[C@H](Cc1c[nH]c2ccccc12)NC(C)=O)[C@@H](C)CC)[C@@H](C)O)[C@@H](C)CC)C(=O)N[C@@H](CCC(=O)O)C(=O)N[C@@H](CCC(=O)O)C(=O)N[C@@H](CO)C(=O)N[C@@H](CCC(N)=O)C(=O)N[C@@H](CC(N)=O)C(=O)N[C@@H](CCC(N)=O)C(=O)N[C@@H](CCC(N)=O)C(=O)N[C@@H](CCC(=O)O)C(=O)N[C@@H](CCCCN)C(=O)N[C@@H](CC(N)=O)C(=O)N[C@@H](CCC(=O)O)C(=O)N[C@@H](CCC(N)=O)C(=O)N[C@@H](CCC(=O)O)C(=O)N[C@@H](CC(C)C)C(=O)N[C@@H](CC(C)C)C(=O)NCC(=O)N[C@@H](CO)C(=O)NCC(=O)N[C@@H](CSCC(N)=O)C(N)=O [HIV-P2]
- IC50 (HIV-1 BaL): 60.1 ± 84 nM

Compound: Ac-VALDPIDISIVLNKAKSDLEESKEWIRRSNGKLDSI-GSGSG-C(PEG4-Chol)-NH2 [HPIV-P3]
- IC50 ([1]; read-out: IC50, inhibition of NiV envelope glycoprotein mediated cell-to-cell fusion): 1 to 10 nM
- Fold more potent than the untagged inhibitor (HPIV-P2), HPIV3 fusion [2]: ≈ 10 fold
- IC50 ([2]; read-out: IC50, inhibition of HPIV3 envelope glycoprotein mediated cell-to-cell fusion): 10 to 100 nM
- IC50 ([3]; read-out: IC50, NiV live virus plaque reduction): 8.02 ± 0.66 nM

Compound: Ac-VALDPIDISIVLNKAKSDLEESKEWIRRSNGKLDSIGSGSGC(Cam)-NH2 [HPIV-P2]
- IC50 [1]: > 100 nM
- IC50 [2]: > 100 nM

Compound: I: Ac-VALDPIDISIVLNKAKSDLEESKEWIRRSNGKLDSIGSGSGC-NH2 / II: Ac-VALDPIDISIVLNKAKSDLEESKEWIRRSNGKLDSIGSGSGC-NH2 (linker I:42-II:42 via X1) [HPIV-P4]
- Fold more potent than the cholesterol-tagged monomer (HPIV-P3), NiV fusion [1]: ≈ 10 fold
- IC50 [1]: < 1 nM
- IC50 [2]: < 10 nM
- Relative fusion inhibitory potency in words, HPIV3 fusion [2]: considerably more potent than the cholesterol-tagged monomer
- IC50 ([3]; 1 h): 4.36 ± 1.3 nM
- Onset of illness / lifespan of NiV-infected hamsters (Nipah virus): onset of the illness was considerably delayed in the other four, leading to a significantly extended lifespan
- Survival of NiV-infected hamsters (Nipah virus): survival of one of the five animals

Compound: CC[C@H](C)[C@H](NC(=O)[C@H](CC(C)C)NC(=O)[C@H](CO)NC(=O)[C@H](Cc1c[nH]cn1)NC(=O)[C@@H](NC(=O)[C@H](CC(C)C)NC(=O)[C@H](CO)NC(=O)[C@@H](NC(=O)[C@H](Cc1ccc(O)cc1)NC(=O)[C@H](CC(N)=O)NC(=O)[C@H](CC(N)=O)NC(=O)[C@@H](NC(=O)[C@H](CCC(=O)O)NC(=O)[C@H](CCCNC(=N)N)NC(=O)[C@H](CC(=O)O)NC(=O)[C@H](Cc1c[nH]c2ccccc12)NC(=O)[C@H](CCC(=O)O)NC(=O)[C@H](CCSC)NC(=O)[C@H](Cc1c[nH]c2ccccc12)NC(C)=O)[C@@H](C)CC)[C@@H](C)O)[C@@H](C)CC)C(=O)N[C@@H](CCC(=O)O)C(=O)N[C@@H](CCC(=O)O)C(=O)N[C@@H](CO)C(=O)N[C@@H](CCC(N)=O)C(=O)N[C@@H](CC(N)=O)C(=O)N[C@@H](CCC(N)=O)C(=O)N[C@@H](CCC(N)=O)C(=O)N[C@@H](CCC(=O)O)C(=O)N[C@@H](CCCCN)C(=O)N[C@@H](CC(N)=O)C(=O)N[C@@H](CCC(=O)O)C(=O)N[C@@H](CCC(N)=O)C(=O)N[C@@H](CCC(=O)O)C(=O)N[C@@H](CC(C)C)C(=O)N[C@@H](CC(C)C)C(=O)NCC(=O)N[C@@H](CO)C(=O)NCC(=O)N[C@@H](CSC1CC(=O)N(CCCC(=O)NCCOCCOCCOCCOCCC(=O)NCCN(CCNC(=O)CCOCCOCCOCCOCCNC(=O)CCCN2C(=O)CC(SC[C@H](NC(=O)CNC(=O)[C@H](CO)NC(=O)CNC(=O)[C@H](CC(C)C)NC(=O)[C@H](CC(C)C)NC(=O)[C@H](CCC(=O)O)NC(=O)[C@H](CCC(N)=O)NC(=O)[C@H](CCC(=O)O)NC(=O)[C@H](CC(N)=O)NC(=O)[C@H](CCCCN)NC(=O)[C@H](CCC(=O)O)NC(=O)[C@H](CCC(N)=O)NC(=O)[C@H](CCC(N)=O)NC(=O)[C@H](CC(N)=O)NC(=O)[C@H](CCC(N)=O)NC(=O)[C@H](CO)NC(=O)[C@H](CCC(=O)O)NC(=O)[C@H](CCC(=O)O)NC(=O)[C@@H](NC(=O)[C@H](CC(C)C)NC(=O)[C@H](CO)NC(=O)[C@H](Cc3c[nH]cn3)NC(=O)[C@@H](NC(=O)[C@H](CC(C)C)NC(=O)[C@H](CO)NC(=O)[C@@H](NC(=O)[C@H](Cc3ccc(O)cc3)NC(=O)[C@H](CC(N)=O)NC(=O)[C@H](CC(N)=O)NC(=O)[C@@H](NC(=O)[C@H](CCC(=O)O)NC(=O)[C@H](CCCNC(=N)N)NC(=O)[C@H](CC(=O)O)NC(=O)[C@H](Cc3c[nH]c4ccccc34)NC(=O)[C@H](CCC(=O)O)NC(=O)[C@H](CCSC)NC(=O)[C@H](Cc3c[nH]c4ccccc34)NC(C)=O)[C@@H](C)CC)[C@@H](C)O)[C@@H](C)CC)[C@@H](C)CC)C(N)=O)C2=O)CCO[C@H]2CC[C@@]3(C)C(=CC[C@H]4[C@@H]5CC[C@H]([C@H](C)CCCC(C)C)[C@@]5(C)CC[C@@H]43)C2)C1=O)C(N)=O (stereo partly shown) [HIV-P4]
- Potency increase versus the untagged HR-derived peptide (HIV-P2), strain BaL (HIV-1 BaL; ratio of IC50): 6,000 fold
- IC50 (HIV-1 BaL): 0.01 ± 0.01 nM

— paper PMC3353973 (PLoS ONE, 2012)
